Measured values taken from patent US9616129B2, “Compositions and methods for potentiating immune response, enhancing immunotherapy, and increasing vaccine potency” (Nitor Therapeutics, priority 2013, dated 2017).

Columns and labels:
tetanus toxoid vaccine = test: Tetanus toxoid vaccine efficacy study (adjuvant) in mice; type: in vivo; conditions: compared to vehicle treated group
Experimental: Tetanus toxoid (TT) was used to vaccinate mice thrice, two weeks apart. Mice were treated by oral administration of compounds NTR001 and NTR002 and serum was collected at various time points for antibody titer and interferon-g analysis. Mice in Groups 2-6 (Table 2) are vaccinated subcutaneously with 0.1 ml tetanus toxoid vaccine on DAYS 0, 14 and 28. Mice in Group 1 (Table 1) received no vaccine. Antibody titers for DAYS 38 are determined by ELISA using tetanus toxoid coated microtiter plates and anti-mouse conjugate. Sera from DAY 30 are assayed by ELISA for interferon-g.

[1] = test system: L. monocytogenes (ATCC Strain35152, hemolytic substrain); test: Mouse model of L. monocytogenes infection; type: in vivo; conditions: Balb/c mice infected i.v. with 1×10^6 CFU; treatments per Table 3; FIGS. 7 and 9
human TLR4 = molecular target: T1, human TLR4 (Homo sapiens, UniProt O00206); test: TLR ligand screening, NF-κB SEAP reporter in HEK293 cells expressing TLR4; type: cell-based; conditions: one concentration: Guanosine 100 uM, NTR001 10 uM, Inosine 100 uM; FIG. 2
T1 construct: expressed in transfected cells; host or cells: HEK293
T1 sequence (O00206 24-839): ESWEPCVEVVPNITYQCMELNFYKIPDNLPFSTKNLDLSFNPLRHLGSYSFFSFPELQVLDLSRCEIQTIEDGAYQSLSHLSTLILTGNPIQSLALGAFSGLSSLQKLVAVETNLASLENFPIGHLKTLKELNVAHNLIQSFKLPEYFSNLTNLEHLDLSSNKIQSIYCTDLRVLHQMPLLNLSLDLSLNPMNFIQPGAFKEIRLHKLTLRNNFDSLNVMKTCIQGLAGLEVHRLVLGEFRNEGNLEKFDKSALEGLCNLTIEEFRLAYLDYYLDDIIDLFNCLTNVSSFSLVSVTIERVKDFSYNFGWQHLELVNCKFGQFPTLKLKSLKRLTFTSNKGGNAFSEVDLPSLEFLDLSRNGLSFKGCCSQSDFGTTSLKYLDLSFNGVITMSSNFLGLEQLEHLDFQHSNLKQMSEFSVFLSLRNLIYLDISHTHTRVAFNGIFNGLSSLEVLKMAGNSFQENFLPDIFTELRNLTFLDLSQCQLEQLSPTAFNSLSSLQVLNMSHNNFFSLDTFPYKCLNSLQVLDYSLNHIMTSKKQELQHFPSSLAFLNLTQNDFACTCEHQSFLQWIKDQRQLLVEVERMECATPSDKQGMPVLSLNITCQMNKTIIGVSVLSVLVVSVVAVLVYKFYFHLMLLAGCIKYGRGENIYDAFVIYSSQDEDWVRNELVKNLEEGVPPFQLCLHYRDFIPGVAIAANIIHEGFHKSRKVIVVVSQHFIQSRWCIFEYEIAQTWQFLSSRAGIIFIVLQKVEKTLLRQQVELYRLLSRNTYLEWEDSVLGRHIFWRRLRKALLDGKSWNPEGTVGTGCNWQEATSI
T1 sequence (Q9Y6Y9 17-160 partner limits assumed): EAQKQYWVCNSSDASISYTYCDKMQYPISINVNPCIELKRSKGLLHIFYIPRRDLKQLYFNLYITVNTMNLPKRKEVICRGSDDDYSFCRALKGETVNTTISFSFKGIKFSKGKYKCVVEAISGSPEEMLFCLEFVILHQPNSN
Experimental: (§1) TLR stimulation is tested by assessing NF-κB activation in HEK293 cells expressing a given TLR. The Secreted Embryonic Alkaline Phosphatase (SEAP) reporter is under the control of a promoter inducible by the transcription factor NF-κB. This reporter gene allows the monitoring of signaling through the TLR, based on the activation of NF-κB. The compounds are evaluated at one concentration and compared to control ligands. This step is performed in triplicate.

human TLR2 = molecular target: T2, human TLR2 (Homo sapiens, UniProt O60603); test: TLR ligand screening, NF-κB SEAP reporter in HEK293 cells expressing TLR2; type: cell-based; conditions: one concentration: Guanosine 100 uM, NTR001 10 uM, Inosine 100 uM; FIG. 2
T2 construct: expressed in transfected cells; host or cells: HEK293
T2 sequence (O60603 21-784): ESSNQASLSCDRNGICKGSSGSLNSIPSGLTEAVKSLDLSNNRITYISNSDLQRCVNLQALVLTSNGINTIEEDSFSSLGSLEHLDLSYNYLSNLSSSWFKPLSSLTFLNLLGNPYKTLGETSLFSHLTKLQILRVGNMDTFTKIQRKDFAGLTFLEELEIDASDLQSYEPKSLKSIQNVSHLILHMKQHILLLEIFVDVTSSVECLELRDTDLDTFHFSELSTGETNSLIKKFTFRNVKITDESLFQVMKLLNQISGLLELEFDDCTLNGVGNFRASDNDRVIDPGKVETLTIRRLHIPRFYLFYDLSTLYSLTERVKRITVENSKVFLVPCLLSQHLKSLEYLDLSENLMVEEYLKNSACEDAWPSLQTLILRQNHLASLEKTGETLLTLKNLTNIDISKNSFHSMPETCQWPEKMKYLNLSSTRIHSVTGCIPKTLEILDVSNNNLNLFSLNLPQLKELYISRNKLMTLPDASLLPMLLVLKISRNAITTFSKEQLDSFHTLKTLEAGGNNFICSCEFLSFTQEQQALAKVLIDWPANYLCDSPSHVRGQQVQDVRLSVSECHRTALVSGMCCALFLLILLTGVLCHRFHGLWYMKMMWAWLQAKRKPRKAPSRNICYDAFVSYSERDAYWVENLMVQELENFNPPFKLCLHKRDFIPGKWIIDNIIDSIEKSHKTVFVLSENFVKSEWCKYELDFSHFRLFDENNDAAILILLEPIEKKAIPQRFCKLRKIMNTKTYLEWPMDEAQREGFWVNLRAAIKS
Experimental: as §1

B16 tumors = test: Syngeneic mouse melanoma model; type: in vivo, C57BL/6 mice; conditions: cyclophosphamide 100 mg/kg IP single dose
Experimental: Cancer cells were injected subcutaneously in right flank of each mouse, 1×10^4 cells in 0.1 ml PBS with 20% Matrigel. Treatment with the NTR001 was initiated on day 6 after injection of tumor cells. Tumor volume and survival were recorded every 3-4 days.

HCV = conditions: chronically HCV infected patients; cited from earlier work
interferon-a (IFN-a) = conditions: healthy volunteers; oral; cited from earlier work

Q: Which results are given for O=c1[nH]cnc2c(CN3C[C@H](CO)[C@@H](O)C3)c[nH]c12 [NTR002, 1,5-dihydro-7-[[(3R,4R)-3-hydroxy-4-(hydroxymethyl)pyrrolidin-1-yl]methyl]-4H-pyrrolo[3,2-d]pyrimidin-4-one]?
A: serum interferon-g (tetanus toxoid vaccine; day 30, ELISA, high dose group 60 mg/kg p.o., FIG. 4): elevated; serum tetanus toxoid antibody titers (tetanus toxoid vaccine; day 38, ELISA, p.o. 30 mg/kg (6 days of treatment) and 60 mg/kg (3 days of treatment), FIG. 3): significantly elevated; weight loss [1]: significant decrease

Q: With Nc1nc2c(ncn2[C@@H]2O[C@H](CO)[C@@H](O)[C@H]2O)c(=O)[nH]1 [Guanosine] as the molecule, how does the “stimulatory effect on human TLR4 (NF-κB activation)” value (human TLR4) read?
A: significant stimulatory effect

Q: And the “stimulatory effect on human TLR2 (NF-κB activation)” value (human TLR2)?
A: significant stimulatory effect

Q: Which survival (B16 tumors) does the source give for O=P1(N(CCCl)CCCl)NCCCO1 (centres unmarked) [Cycicophosphamide, Cyclophosphamide] here?
A: 30%

Q: With CC(=O)O[C@@H]1C[C@@H](CO)O[C@H]1n1c(=O)sc2cnc(N)nc21 [ANA773] as the molecule, how does the “HCV RNA” value (HCV) read?
A: dose-dependent reduction

Q: What about the “induction of endogenous interferon-a (IFN-a)” value (interferon-a (IFN-a)) of the same molecule?
A: induce endogenous interferon-a (IFN-a) of multiple subtypes
